{"source": "paper PMC9676260", "about": "“Enzymatic properties of CARF-domain proteins in Synechocystis sp. PCC 6803” (Frontiers in Microbiology, 2022)", "key": {"[1]": {"biological_target": "SyCsx1 (Csx1 homolog of the Synechocystis sp. PCC 6803 CRISPR2 type III-D system) (Synechocystis sp. PCC 6803)", "test": "SEC; Superdex 200 10/300 column in 50 mM Tris pH 8.0, 150 mM NaCl, 5% glycerol; elution volume compared with the monomer's mass; monomer to dimer"}, "SyCsx1 [2]": {"biological_target": "T1, SyCsx1 (Synechocystis sp. PCC 6803, UniProt Q6ZED7)", "T1 construct": "gene slr7061; full-length, His-tagged (pQE-80), E. coli BL21(DE3); about 89 kDa by SEC, dimer; encoded on plasmid pSYSA, CRISPR2 (III-D) locus", "T1 sequence (Q6ZED7 1-422)": "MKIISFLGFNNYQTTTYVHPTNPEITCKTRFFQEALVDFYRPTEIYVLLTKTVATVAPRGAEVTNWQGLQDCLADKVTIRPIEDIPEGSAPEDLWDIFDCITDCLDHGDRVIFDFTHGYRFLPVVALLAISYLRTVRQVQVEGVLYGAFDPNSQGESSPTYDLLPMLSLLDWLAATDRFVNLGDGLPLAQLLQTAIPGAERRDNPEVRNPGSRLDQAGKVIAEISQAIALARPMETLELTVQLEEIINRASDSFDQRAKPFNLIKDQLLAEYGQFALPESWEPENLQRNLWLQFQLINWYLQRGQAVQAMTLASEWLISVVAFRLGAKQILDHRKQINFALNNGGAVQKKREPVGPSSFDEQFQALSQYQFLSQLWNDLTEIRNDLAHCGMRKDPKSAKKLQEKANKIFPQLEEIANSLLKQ", "test": "fluorogenic RNaseAlert cleavage", "assay_type": "biochemical", "settings": "activator; cFA4 preincubated at 20 nM (mock or with SyCsm6), then 300 nM SyCsx1, 20 nM RNaseAlert substrate, 30 °C"}, "SyCsx1 [3]": {"biological_target": "T1, SyCsx1", "test": "fluorogenic RNaseAlert cleavage; gel-based RNA cleavage", "assay_type": "biochemical", "settings": "allosteric activator binding the CARF domain; 300 nM cA4, 300 nM SyCsx1, 40 nM RNaseAlert substrate, 50 mM HEPES pH 7.5, 50 mM KCl, 1 mM DTT, 30 °C"}, "SyCsm6 [4]": {"biological_target": "T2, SyCsm6 (Synechocystis sp. PCC 6803, UniProt Q6ZED6)", "T2 construct": "gene sll7062; full-length, His-tagged (pQE-80), E. coli BL21(DE3); encoded on plasmid pSYSA, CRISPR2 (III-D) locus", "T2 sequence (Q6ZED6 1-371)": "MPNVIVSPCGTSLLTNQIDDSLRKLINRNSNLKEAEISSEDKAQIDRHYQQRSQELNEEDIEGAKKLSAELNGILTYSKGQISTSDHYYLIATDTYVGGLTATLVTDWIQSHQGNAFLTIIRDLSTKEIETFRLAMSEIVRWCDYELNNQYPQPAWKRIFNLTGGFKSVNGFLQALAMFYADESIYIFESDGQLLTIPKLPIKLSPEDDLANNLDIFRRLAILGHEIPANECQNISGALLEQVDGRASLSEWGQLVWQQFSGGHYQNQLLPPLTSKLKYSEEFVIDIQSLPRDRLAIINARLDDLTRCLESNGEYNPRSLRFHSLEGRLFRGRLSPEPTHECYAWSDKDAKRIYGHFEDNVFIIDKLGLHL", "test": "LC-MS of cOA degradation products; coupled SyCsx1 activation assay", "assay_type": "biochemical", "settings": "ring nuclease; 667 nM cA4, 2 µM SyCsm6, 30 °C, 2 h"}, "[5]": {"biological_target": "SyCsm6 (Csm6 homolog of the Synechocystis sp. PCC 6803 CRISPR2 type III-D system) (Synechocystis sp. PCC 6803)", "test": "SEC; Superdex 200 10/300 column in 50 mM Tris pH 8.0, 150 mM NaCl, 5% glycerol; elution volume compared with the monomer's mass; monomer to dimer"}, "SyCsm6 [6]": {"biological_target": "T2, SyCsm6", "test": "LC-MS of cOA degradation products", "assay_type": "biochemical", "settings": "ring nuclease; 667 nM cA6, 2 µM SyCsm6, 30 °C, 2 h"}}}
{"molecule": "SyCsx1 (Csx1 homolog of the Synechocystis sp. PCC 6803 CRISPR2 type III-D system) (enzyme)", "values": [{"measurement": "stoichiometry N", "setting": "[1]", "result": 2}]}
{"molecule": "Nc1ncnc2c1ncn2[C@@H]1O[C@@H]2COP(=O)(O)O[C@H]3[C@@H](F)[C@H](n4cnc5c(N)ncnc54)O[C@@H]3COP(=O)(O)O[C@H]3[C@@H](F)[C@H](n4cnc5c(N)ncnc54)O[C@@H]3COP(=O)(O)O[C@H]3[C@@H](F)[C@H](n4cnc5c(N)ncnc54)O[C@@H]3COP(=O)(O)O[C@H]2[C@H]1F", "note": "[cFA4]", "values": [{"measurement": "fluorogenic RNaseAlert cleavage", "setting": "SyCsx1 [2]", "result": "cFA4 is a less potent activator of SyCsx1 as seen by the slower substrate turnover"}]}
{"molecule": "Nc1ncnc2c1ncn2[C@@H]1O[C@@H]2COP(=O)(O)O[C@H]3[C@@H](O)[C@H](n4cnc5c(N)ncnc54)O[C@@H]3COP(=O)(O)O[C@H]3[C@@H](O)[C@H](n4cnc5c(N)ncnc54)O[C@@H]3COP(=O)(O)O[C@H]3[C@@H](O)[C@H](n4cnc5c(N)ncnc54)O[C@@H]3COP(=O)(O)O[C@H]2[C@H]1O", "note": "[cA4]", "values": [{"measurement": "fluorogenic RNaseAlert cleavage; gel-based RNA cleavage", "setting": "SyCsx1 [3]", "result": "the addition of cA4 leads to a significant increase of the fluorescence signal"}, {"measurement": "LC-MS of cOA degradation products; coupled SyCsx1 activation assay", "setting": "SyCsm6 [4]", "result": "the substrate peak was gone and cA4 was converted to a product"}]}
{"molecule": "SyCsm6 (Csm6 homolog of the Synechocystis sp. PCC 6803 CRISPR2 type III-D system) (enzyme)", "values": [{"measurement": "stoichiometry N", "setting": "[5]", "result": 2}]}
{"molecule": "Nc1ncnc2c1ncn2[C@@H]1O[C@@H]2COP(=O)(O)O[C@H]3[C@@H](O)[C@H](n4cnc5c(N)ncnc54)O[C@@H]3COP(=O)(O)O[C@H]3[C@@H](O)[C@H](n4cnc5c(N)ncnc54)O[C@@H]3COP(=O)(O)O[C@H]3[C@@H](O)[C@H](n4cnc5c(N)ncnc54)O[C@@H]3COP(=O)(O)O[C@H]3[C@@H](O)[C@H](n4cnc5c(N)ncnc54)O[C@@H]3COP(=O)(O)O[C@H]3[C@@H](O)[C@H](n4cnc5c(N)ncnc54)O[C@@H]3COP(=O)(O)O[C@H]2[C@H]1O", "note": "[cA6]", "values": [{"measurement": "LC-MS of cOA degradation products", "setting": "SyCsm6 [6]", "result": "cA6 was cleaved to A2 > P and an additional product"}]}
